This is an account of results in the NIST ThermoML archive (doi:10.1021/acs.jced.5b00986).

The conditions of this data set: Liquid, Dynamic light scattering.

± gives the expanded uncertainty stated by the source.

Consider `CCCCCCCCCCCC` [dodecane], for which the thermal diffusivity runs as follows: (423.73 K) 5.83e-08 ± 3e-09 m2/s; (448.23 K) 5.23e-08 ± 2.2e-09 m2/s; (473.1 K) 4.87e-08 ± 2e-09 m2/s; (498.16 K) 4.58e-08 ± 3.4e-09 m2/s; (523.18 K) 4.25e-08 ± 2.6e-09 m2/s.
Turning to `CCCCCCCCCCCCCCCCCCCCCCCCCCCCCCCCCCCCCCCC` [tetracontane], the thermal diffusivity is, setting by setting: (448.09 K) 6.57e-08 ± 3.4e-09 m2/s; (448.57 K) 6.73e-08 ± 4.3e-09 m2/s; (473.26 K) 6.86e-08 ± 8e-09 m2/s.
